The experiment relates to adhesion formation. Briefly: Adhesion formation after CO2 laser injury under CO2 or CO2/O2 pneumoperitoneum, scored at second-look laparoscopy after one week. Also noted: key to Mean total adhesion score: sum of extent (0-4), type (0-3), tenacity (0-3), inflammation (0-3). Type of experiment: in vivo, New Zealand white rabbits. How it is done: All animals received two standard CO2 laser injuries. A non opposing lesion was inflicted in the retro-uterine space, i.e. on the posterior utero-vaginal wall, consisting of a 2 cm^2; vaporization of the superficial layers with CO2 laser. In addition, an apposing lesion was performed in the oviduct and pelvic side wall, consisting of a 2 cm^2 vaporization, on both sides. The time required to induce the lesions varied from 3 to 7 minutes.
Animals were assigned randomly on a daily base, to one of the following seven experimental groups. First and second groups were considered control groups. In group 1, using conventional CO2 pneumoperitoneum, the total duration of the procedure was restricted to 10 minutes.
Adhesions were evaluated by laparoscopy after one week. All second look laparoscopies were videotaped, and subsequently scored blindly by two investigators, taking into account extent (0 to 4 points), type (0 to 3 points), tenacity (0 to 3 points) and inflammatory reaction (0 to 3 points) at the injury and at de-novo siteds.
Sixty five New Zealand white rabbits weighing between 2150 and 3000 grams were operated with a standard 3 puncture laparoscopy. Standard surgical injuries were inflicted with CO2 laser (Sharplan 1060: Sharplan, Tel Aviv, Israel) with a spot diameter of 1 mm and a power setting of 10 watts in the continuous superpulse mode. […] The output of both insufflators was mixed in a mixing chamber, humidified and warmed. The insufflation pressure was 10 cm of water and the intra-abdominal flow rate 20 l/min. It is obvious that all means in contact with O2 are adapted therefor.

As to `O=C=O` [CO2, carbon dioxide, reference compound], the “P of difference in total adhesion score versus control group with 100% CO2 (Group 2, 60′ CO2)” value (10′ CO2 (group 1)) is listed as “P = 0.0002”. The “Mean total adhesion score” value turned out to be 4.5±3.7 (group 1: pure CO2 pneumoperitoneum, procedure restricted to 10 minutes) and 17.5±6.7 (group 2: pure CO2 pneumoperitoneum maintained 70 minutes). Further, the “Increase of adhesion scores, 60 min exposure in comparison with 10 min exposure” value (pure CO2, 60 min vs 10 min) turned out to be 4 fold.

With `O=O` [O2, oxygen], the “P of difference in total adhesion score versus control group with 100% CO2 (Group 2, 60′ CO2)” value (60′ 2.5% O2 (group 4)) is recorded as “P = 0.05”; the “P of difference in total adhesion score versus control group with 100% CO2 (Group 2, 60′ CO2)” value (60′ 5% O2 (group 5)) is reported as “P = 0.0005”; the “P of difference in total adhesion score versus control group with 100% CO2 (Group 2, 60′ CO2)” value (60′ 10% O2 (group 6)) is “P = 0.007”; the “P of difference in total adhesion score versus control group with 100% CO2 (Group 2, 60′ CO2)” value (60′ 20% O2 (group 7)) is “P = 0.005”. The “P of decrease in total adhesion score with the addition of O2” value reads like this: (de novo adhesions around the opposite tube) 0.0001; (non opposing lesion in the pouch of Douglas) 0.0002; (opposing lesion in tube/side wall) 0.0014. Also, the “Adhesiogenic effect of CO2” value (from a final concentration of 5% oxygen onwards, together with CO2) is “completely abolished”. The “Mean total adhesion score” value is, setting by setting: (group 3: CO2 with 1% O2, pneumoperitoneum 70 minutes) 15.8±5.2; (group 5: CO2 with 5% O2, pneumoperitoneum 70 minutes) 5.3±3.8; (group 6: CO2 with 10% O2, pneumoperitoneum 70 minutes) 6.6±4.4; (group 7: CO2 with 20% O2, pneumoperitoneum 70 minutes) 6.3±2.5. Besides, the Amount of adhesions entry (increasing concentrations of oxygen in CO2 pneumoperitoneum) was “decreased progressively”.

These data come from patent US7073512B2, “Adhesion prevention and an endoscopic insufflation system therefor” (Saturnus AG, priority 1997, dated 2006).
